Results published in the supplement of paper PMC10307832.

How the values were obtained:
Assay in all cases: relative viability (nuclei count vs DMSO), 5 days (fraction); higher = more cells survive
Mirin + Palbociclib = compound: N=C1NC(=O)/C(=C/c2ccc(O)cc2)S1 [Mirin] + CC(=O)c1c(C)c2cnc(Nc3ccc(N4CCNCC4)cn3)nc2n(C2CCCC2)c1=O [Palbociclib] (partner 0.5 µM)
Outline: (§1)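 One day after seeding in 1536-well plates, lung cancer cell lines were dosed by pin tool. Dosing was either single-drug or a fixed anchor-drug dose plus five library-drug doses (not always all listed) in √10 steps. After 5 days, nuclei were stained in one fix-and-stain step and counted on 4× images, and relative viability is the nuclei count of treated wells over that of vehicle wells, given as the median of duplicate plates.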

[1] = compound: CCC1=CN=CN=C1N2CCN(CC2)CC3=NC4=C(N3)C=C(C=C4)C(F)(F)F + NC(=O)Nc1cc(-c2cccc(F)c2)sc1C(=O)N[C@H]1CCCNC1 [AZD7762] (partner 0.2 µM)
Outline: as §1

[2] = compound: CCC1=CN=CN=C1N2CCN(CC2)CC3=NC4=C(N3)C=C(C=C4)C(F)(F)F + CC1(C)CCC(c2ccc(Cl)cc2)=C(CN2CCN(c3ccc(C(=O)NS(=O)(=O)c4ccc(N[C@H](CCN5CCOCC5)CSc5ccccc5)c(S(=O)(=O)C(F)(F)F)c4)cc3)CC2)C1 [Navitoclax] (partner 0.5 µM)
Outline: as §1

[3] = compound: CCn1c(-c2nonc2N)nc2cnc(Oc3cccc(NC(=O)c4ccc(OCCN5CCOCC5)cc4)c3)cc21 + CC(=O)c1c(C)c2cnc(Nc3ccc(N4CCNCC4)cn3)nc2n(C2CCCC2)c1=O [Palbociclib] (partner 0.5 µM)
Outline: as §1

Row | Cell Line | relative viability (Mirin + Palbociclib; first compound 0.25 µM) | relative viability (Mirin + Palbociclib; first compound 0.7906 µM) | relative viability (Mirin + Palbociclib; first compound 2.5 µM) | relative viability (Mirin + Palbociclib; first compound 7.906 µM) | relative viability (Mirin + Palbociclib; first compound 25 µM) | relative viability ([1]; first compound 0.04 µM) | relative viability ([1]; first compound 0.1265 µM) | relative viability ([1]; first compound 0.4 µM) | relative viability ([1]; first compound 1.265 µM) | relative viability ([1]; first compound 4 µM) | relative viability ([2]; first compound 0.04 µM) | relative viability ([2]; first compound 0.1265 µM) | relative viability ([2]; first compound 0.4 µM) | relative viability ([2]; first compound 1.265 µM) | relative viability ([2]; first compound 4 µM) | relative viability ([3]; first compound 0.04 µM) | relative viability ([3]; first compound 0.1265 µM) | relative viability ([3]; first compound 0.4 µM) | relative viability ([3]; first compound 1.265 µM) | relative viability ([3]; first compound 4 µM)
1 | NCI-H2126 | 0.342 | 0.361 | 0.332 | 0.394 | 0.396 | 0.97 | 1.02 | 0.957 | 1.02 | 1.17 | 0.818 | 0.818 | 0.839 | 0.794 | 0.867 | 0.362 | 0.338 | 0.355 | 0.361 | 0.325
2 | NCI-H727 | 0.707 | 0.782 | 0.594 | 0.615 | 0.636 | 0.641 | 0.593 | 0.522 | 0.566 | 0.541 | 0.487 | 0.501 | 0.357 | – | 0.35 | – | 0.63 | 0.599 | 0.657 | 0.622
3 | EMC-BAC-2 | 0.485 | 0.515 | 0.52 | 0.4 | 0.502 | 1.1 | 1.05 | 1.12 | 1.05 | 1.21 | 1.15 | 1.14 | 1.14 | 1.14 | 1.2 | 0.517 | 0.458 | 0.397 | 0.369 | 0.389
4 | NCI-H1355 | 0.395 | 0.427 | 0.41 | 0.412 | 0.443 | 0.744 | 0.722 | 0.638 | 0.627 | 0.637 | 0.987 | 0.919 | 0.903 | 0.806 | 0.973 | 0.321 | 0.411 | 0.411 | 0.397 | 0.374
5 | NCI-H2347 | 0.444 | 0.465 | 0.506 | 0.422 | 0.436 | 0.708 | 0.699 | 0.823 | 0.645 | 0.905 | 0.711 | 0.733 | 0.783 | 0.665 | 0.729 | 0.432 | 0.455 | 0.385 | 0.376 | 0.381
6 | NCI-H1651 | 0.477 | 0.561 | 0.53 | 0.497 | 0.516 | 0.452 | 0.433 | 0.436 | 0.484 | 0.524 | 1.06 | 0.875 | 1.04 | 0.941 | 1.01 | 0.587 | 0.584 | 0.476 | 0.369 | 0.432
7 | NCI-H1975 | 0.7 | 0.57 | 0.555 | 0.606 | 0.583 | 0.662 | 0.744 | 0.713 | 0.645 | 0.746 | 1.15 | 1.08 | 1.06 | 0.879 | 0.931 | 0.476 | 0.446 | 0.273 | 0.23 | 0.474
